According to patent US4132790A:
Like-named read-outs stand apart in the source and are kept apart here.

Columns and labels:
solubility = format: physicochemical; conditions: monoammonium salt
[1] = system: Ascaris lumbricoides var. suum; test: anthelmintic test in infected mice, treated feed; format: in vivo; conditions: Example 13, 0.05 percent in diet, control 2.66
Text: The feeds were utilized as diets for separate groups of mice, five mice per group. About twelve hours after initiation of the feeding, the mice were infected with Ascaris lumbricoides var. suum ova. Another group of five mice was fed the non-medicated feed to serve as a control but was similarly infected at the same time with Ascaris lumbricoides var. suum. All groups were fed their respective feed and maintained under normal laboratory conditions for a period of eight days, at which time all mice were taken off feed. On the ninth day, all mice were sacrified and the lungs examined to determine the presence, and if present, numbers, of lesions of Ascaris lumbricoides var. suum.
Another evaluation was conducted under the procedures reported in Example II, except that the rates were varied. The results were as follows:
In a further evaluation, the monoammonium salts of A16886I and A16886II were separately evaluated for the control of Ascaris lumbricoides var. suum. The evaluations were conducted in accordance with the procedure reported in Example 11 at a concentration in the diet of 0.05 percent.

Pseudomonas solanacearum = format: in vivo; conditions: scale 0 to 4; for Disease Rating: light infection in controls; for rating: heavy infestation in controls
tomato plant = test: field trial, crop injury; format: in vivo; conditions: scale 0 = no injury, 10 = dead plants; for Crop Injury Ratings First Reading: one week; for Crop Injury Ratings Second Reading: two weeks
Protocol: (§1) A mixture of the monoammonium salt of A16886I and the monoammonium salt of A16886II was tested under field conditions for the control of Xanthomonas vesicatoria (bacterial spot) on mature bearing tomato plant. The mixture of the two salts was dispersed in water at a concentration of 100, 200, or 400 parts per million and applied to the plants at the rate of 75 gallons per acre. Application was made with a CO2 sprayer at 50 psi. Plants were sprayed twice, on successive days; after the second spray had dried, all plants were wounded by sand blasting and then within one minute the plants were inoculated with a bacterial inoculum of Xanthomonas vesicatoria. Three days later, a third spray application of the aqueous formulation of A16886 was made. Readings were made one week and two weeks after the last spray treatment. Controls consisted of groups of plants (1) sand blasted and inoculated; (2) sand blasted only; (3) untreated; and (4) treated with streptomycin (on the same three-day spraying schedule, at a concentration of 100, 200, or 400 parts per million of aqueous solution, using a rate of 75 gallons per acre), sand blasted, and inoculated. The results were as set forth in the following table, in which crop injury is reported on a scale of 0-10, with 0 = no injury and 10 = dead plants; and control of bacterial spot is reported on a percentage basis.

Xanthomonas vesicatoria = test: field trial, bacterial spot control on tomato plants; format: in vivo; conditions: for Percent Bacterial Spot Control First Reading: one week; for Percent Bacterial Spot Control Second Reading: two weeks
Protocol: as §1

Row | SMILES | solubility in acetonitrile and other organic solvents (solubility) | solubility in lower alkanols (solubility) | solubility in water (solubility) | Average Number of Lung Lesions Per Group [1] | Disease Rating (Pseudomonas solanacearum; Example 7, 10 ppm) | Disease Rating (Pseudomonas solanacearum; Example 7, 100 ppm) | rating (Pseudomonas solanacearum; Example 8, 200 ppm) | rating (Pseudomonas solanacearum; Example 8, 400 ppm) | Crop Injury Ratings First Reading (tomato plant; 100 parts/million) | Crop Injury Ratings Second Reading (tomato plant; 100 parts/million) | Crop Injury Ratings First Reading (tomato plant; 200 parts/million) | Crop Injury Ratings Second Reading (tomato plant; 200 parts/million) | Crop Injury Ratings First Reading (tomato plant; 400 parts/million) | Crop Injury Ratings Second Reading (tomato plant; 400 parts/million) | Percent Bacterial Spot Control First Reading (Xanthomonas vesicatoria; 100 parts/million) [%] | Percent Bacterial Spot Control Second Reading (Xanthomonas vesicatoria; 100 parts/million) [%] | Percent Bacterial Spot Control First Reading (Xanthomonas vesicatoria; 200 parts/million) [%] | Percent Bacterial Spot Control Second Reading (Xanthomonas vesicatoria; 200 parts/million) [%] | Percent Bacterial Spot Control First Reading (Xanthomonas vesicatoria; 400 parts/million) [%] | Percent Bacterial Spot Control Second Reading (Xanthomonas vesicatoria; 400 parts/million) [%]
1 | COC1(NC(=O)CCCC(N)C(=O)O)C(=O)N2C(C(=O)O)=C(COC(N)=O)CS[C@@H]21 (some centres unmarked) [A16886I, 7-(5-amino-5-carboxyvaleramido)-3-(carbamoyloxymethyl)-7-methoxy-3-cephem-4-carboxylic acid] | essentially insoluble | slightly soluble | very soluble | 0.46 | 2 | 4 | 4 | 4 |  |  |  |  |  |  |  |  |  |  |  | 
2 | NC(=O)OCC1=C(C(=O)O)N2C(=O)C(NC(=O)CCCC(N)C(=O)O)[C@H]2SC1 (some centres unmarked) [A16886II, 7-(5-amino-5-carboxyvaleramido)-3-(carbamoyloxymethyl)-3-cephem-4-carboxylic acid] | essentially insoluble | slightly soluble | very soluble | 0.20 | 1 | 4 |  |  |  |  |  |  |  |  |  |  |  |  |  | 
3 | [H]/N=C(/N)N[C@H]1[C@H](O)[C@@H](O)[C@H](O[C@@H]2O[C@@H](C)[C@](O)(C=O)[C@H]2O[C@@H]2O[C@@H](CO)[C@H](O)[C@@H](O)[C@@H]2NC)[C@@H](N/C(N)=N\[H])[C@@H]1O [Streptomycin] |  |  |  |  |  |  |  |  | 0 | 0 | 0 | 0 | 0 | 0 | 83 | 57 | 81 | 37 | 83 | 59
